Data on 22 molecules can be found in patent US8546385B2, “Benzoic pyrrolopyridine derivatives” (Laboratoires FOURNIER SA, priority 2010, dated 2013).

The structures appear in SMILES notation. Like-named read-outs stand apart in the source and are kept apart here.

Experiment [1] concerns the target hNurr1_RXRγFL (NURR-1/RXRγ heterodimer) (Homo sapiens, UniProt P48443). In words: Transactivation test (luciferase reporter) in Cos-7 cells co-transfected with NURR-1-Gal4 and RXRγ. Format: cell-based. The settings on record: percentage efficacy relative to the reference XCT0135908 at 2×10^−5 M (=100%), read-out: hNurr1_RXRγFL Eff (%). How it is done: The ability of the compounds according to the invention to behave as activators of the heterodimers formed by the NURR-1 nuclear receptor and the RXR nuclear receptors was measured, by means of an in vitro test.
A transactivation test was used as a primary screening test. Cos-7 cells were co-transfected with a plasmid expressing a construct of the NURR-1-Ga14 human receptor, a plasmid expressing the RXR human receptor (RXRα or RXRγ receptor) and a reporter plasmid 5Gal4pGL3-TK-Luc. The transfections were performed using a chemical agent (Jet PEI).
The transfected cells were distributed into 384-well plates and left to stand for 24 hours.
After 24 hours, the culture medium was changed. The test products were added (final concentration of between 10^−4 and 3×10^−10 M) in the culture medium. After incubating overnight, the luciferase expression was measured after addition of “SteadyGlo” according to the manufacturer's instructions (Promega).
4-[[6-Methyl-2-phenyl-5-(2-propenyl)-4-pyrimidinyl]amino]benzoic acid (reference XCT0135908, described by Wallen-Mackenzie et al. 2003, Genes & Development 17: 3036-3047) at 2×10^−5 M (RXR agonist) was used as reference.
The levels of induction were calculated relative to the basal activity of each heterodimer. The results were expressed as a percentage of the level of induction relative to the level of induction obtained with the reference (the level of induction of the reference is arbitrarily equal to 100%).

Experiment [2] addresses hNurr1_RXRαFL (NURR-1/RXRα heterodimer) (Homo sapiens, UniProt P19793). In words: Transactivation test (luciferase reporter) in Cos-7 cells co-transfected with NURR-1-Gal4 and RXRα. The format is cell-based. How it is done:
The ability of the compounds according to the invention to behave as activators of the heterodimers formed by the NURR-1 nuclear receptor and the RXR nuclear receptors was measured, by means of an in vitro test. A transactivation test was used as a primary screening test. […] The transfections were performed using a chemical agent (Jet PEI). The transfected cells were distributed into 384-well plates and left to stand for 24 hours. After 24 hours, the culture medium was changed. […] After incubating overnight, the luciferase expression was measured after addition of “SteadyGlo” according to the manufacturer's instructions (Promega). […] The levels of induction were calculated relative to the basal activity of each heterodimer. The results were expressed as a percentage of the level of induction relative to the level of induction obtained with the reference (the level of induction of the reference is arbitrarily equal to 100%).

The mark [3] stands for this setting: percentage efficacy relative to the reference XCT0135908 at 2×10^−5 M (=100%), read-out: hNurr1_RXRαFL Eff (%).

Chain of hNurr1_RXRγFL (NURR-1/RXRγ heterodimer) (P48443 whole entry, the tested form may be a part): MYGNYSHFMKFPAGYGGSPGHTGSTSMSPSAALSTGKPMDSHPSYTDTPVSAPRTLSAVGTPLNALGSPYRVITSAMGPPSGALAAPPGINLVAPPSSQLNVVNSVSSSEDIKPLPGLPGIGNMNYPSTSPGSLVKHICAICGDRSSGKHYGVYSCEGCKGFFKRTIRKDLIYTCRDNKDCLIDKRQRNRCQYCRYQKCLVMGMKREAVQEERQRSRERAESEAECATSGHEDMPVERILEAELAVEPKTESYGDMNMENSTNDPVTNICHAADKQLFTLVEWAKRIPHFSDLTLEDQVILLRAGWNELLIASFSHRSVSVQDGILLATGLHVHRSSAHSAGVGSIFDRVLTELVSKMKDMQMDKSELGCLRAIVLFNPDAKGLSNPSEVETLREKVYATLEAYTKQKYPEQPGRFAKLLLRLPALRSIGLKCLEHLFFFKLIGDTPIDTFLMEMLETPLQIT
Chain of hNurr1_RXRγFL (NURR-1/RXRγ heterodimer) (P43354 whole entry partner, the tested form may be a part): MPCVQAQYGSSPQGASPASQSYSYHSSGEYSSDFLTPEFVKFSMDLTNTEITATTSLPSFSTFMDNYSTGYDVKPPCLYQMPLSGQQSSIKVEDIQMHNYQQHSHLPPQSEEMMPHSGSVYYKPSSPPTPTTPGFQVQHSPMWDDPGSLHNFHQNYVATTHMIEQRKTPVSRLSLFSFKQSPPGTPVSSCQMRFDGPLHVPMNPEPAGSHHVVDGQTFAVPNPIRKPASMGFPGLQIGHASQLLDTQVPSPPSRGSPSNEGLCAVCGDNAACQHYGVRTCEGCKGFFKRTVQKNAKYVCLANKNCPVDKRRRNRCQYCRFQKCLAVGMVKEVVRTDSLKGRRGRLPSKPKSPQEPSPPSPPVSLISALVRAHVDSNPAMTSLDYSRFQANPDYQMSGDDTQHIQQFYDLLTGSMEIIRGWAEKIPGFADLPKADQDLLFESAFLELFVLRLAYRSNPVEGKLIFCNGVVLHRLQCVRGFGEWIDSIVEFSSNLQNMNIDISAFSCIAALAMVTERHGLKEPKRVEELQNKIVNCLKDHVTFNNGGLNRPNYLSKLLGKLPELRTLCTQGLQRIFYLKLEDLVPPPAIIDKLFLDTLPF
Chain of hNurr1_RXRαFL (NURR-1/RXRα heterodimer) (P19793 whole entry, the tested form may be a part): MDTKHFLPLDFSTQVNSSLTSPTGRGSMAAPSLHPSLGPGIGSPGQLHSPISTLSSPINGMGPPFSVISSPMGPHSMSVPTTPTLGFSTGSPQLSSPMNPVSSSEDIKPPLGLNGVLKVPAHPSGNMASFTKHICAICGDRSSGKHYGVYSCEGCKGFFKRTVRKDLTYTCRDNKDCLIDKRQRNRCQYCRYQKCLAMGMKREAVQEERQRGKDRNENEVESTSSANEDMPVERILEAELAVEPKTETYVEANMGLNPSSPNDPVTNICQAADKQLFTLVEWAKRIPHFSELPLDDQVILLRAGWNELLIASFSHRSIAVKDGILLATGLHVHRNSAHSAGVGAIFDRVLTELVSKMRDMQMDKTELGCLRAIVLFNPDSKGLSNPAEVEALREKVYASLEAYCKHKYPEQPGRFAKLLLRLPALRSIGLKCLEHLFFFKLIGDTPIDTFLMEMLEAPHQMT
Chain of hNurr1_RXRαFL (NURR-1/RXRα heterodimer) (P43354 whole entry, further chain, the tested form may be a part): as the sequence (P43354 whole entry partner, the tested form may be a part) above

Regarding `CC(C)(C)c1cccc(S(=O)(=O)n2c(Cc3ccc(C(=O)O)s3)cc3nc(C(F)(F)F)ccc32)c1` [Example 1, 5-[[1-[[3-(1,1-dimethylethyl)phenyl]sulfonyl]-5-(trifluoromethyl)-1H-pyrrolo[3,2-b]pyridin-2-yl]methyl]thiophene-2-carboxylic acid], the Emax came to 64% in experiment [1] and 67% in experiment [2] (setting [3]).

On to `CC(C)(C)c1cccc(S(=O)(=O)n2c(Cc3cccc(C(=O)O)c3)cc3cc(C(F)(F)F)ncc32)c1` [Example 2, 3-[[1-[[3-(1,1-dimethylethyl)phenyl]sulfonyl]-5-(trifluoromethyl)-1H-pyrrolo[2,3-c]pyridin-2-yl]methyl]-2-benzoic acid], for which the Emax in experiment [1] was found to be 86%; in experiment [2] (setting [3]) it was 70%.

Regarding `CC(C)(C)c1cccc(S(=O)(=O)n2c(Cc3cc(C(=O)O)co3)cc3cc(C(F)(F)F)ncc32)c1` [Example 4, 5-[[1-[[3-(1,1-dimethylethyl)phenyl]sulfonyl]-5-(trifluoromethyl)-1H-pyrrolo[2,3-c]pyridin-2-yl]methyl]furan-3-carboxylic acid], in experiment [2] (setting [3]), the Emax stood at 104%.

As for `CC(C)(C)c1cccc(S(=O)(=O)n2c(Cc3cncc(C(=O)O)c3)cc3cc(C(F)(F)F)ncc32)c1` [Example 5, 5-[[1-[[3-(1,1-dimethylethyl)phenyl]sulfonyl]-5-(trifluoromethyl)-1H-pyrrolo[2,3-c]pyridin-2-yl]methyl]pyridine-3-carboxylic acid], the Emax in experiment [2] (setting [3]) is 94%.

Consider `CC(C)(C)c1cccc(S(=O)(=O)n2c(Cc3csc(C(=O)O)c3)cc3cc(C(F)(F)F)ncc32)c1` [Example 6, 4-[[1-[[3-(1,1-dimethylethyl)phenyl]sulfonyl]-5-(trifluoromethyl)-1H-pyrrolo[2,3-c]pyridin-2-yl]methyl]thiophene-2-carboxylic acid], for which the Emax in experiment [2] (setting [3]) amounted to 137%.

`CC(C)(C)c1cccc(S(=O)(=O)n2c(Cc3ccc(F)c(C(=O)O)c3)cc3cc(C(F)(F)F)ncc32)c1` [Example 7, 5-[[1-[[3-(1,1-dimethylethyl)phenyl]sulfonyl]-5-(trifluoromethyl)-1H-pyrrolo[2,3-c]pyridin-2-yl]methyl]-2-fluorobenzoic acid]: the Emax in experiment [2] (setting [3]) was found to be 119%.

On to `CC(C)(C)c1cccc(S(=O)(=O)n2c(Cc3nc(C(=O)O)cs3)cc3nc(C(F)(F)F)ccc32)c1` [Example 8, 2-[[1-[[3-(1,1-dimethylethyl)phenyl]sulfonyl]-5-(trifluoromethyl)-1H-pyrrolo[3,2-b]pyridin-2-yl]methyl]thiazole-4-carboxylic acid], for which the Emax in experiment [1] worked out at 72%; in experiment [2] (setting [3]) it was 103%.

Turning to `CN1CCOc2ccc(S(=O)(=O)n3c(Cc4ccc(C(=O)O)cc4)cc4cc(C(F)(F)F)ncc43)cc21` [Example 12, 4-[[1-[(3,4-dihydro-4-methyl-2H-1,4-benzoxazin-6-yl)sulfonyl]-5-(trifluoromethyl)-1H-pyrrolo[2,3-c]pyridin-2-yl]methyl]benzoic acid], the Emax in experiment [1] came out at 75%; in experiment [2] (setting [3]) it was 81%.

Turning to `CC(C)c1ccc(S(=O)(=O)n2c(Cc3ccc(C(=O)O)cc3)cc3cc(C(F)(F)F)ncc32)cc1` [Example 14, 4-[[1-[[4-(1-methylethyl)phenyl]sulfonyl]-5-(trifluoromethyl)-1H-pyrrolo[2,3-c]pyridin-2-yl]methyl]benzoic acid], the Emax in experiment [1] came out at 54%; in experiment [2] (setting [3]), 64%.

Regarding `CC(C)c1ccc(S(=O)(=O)n2c(Cc3ccc(C(=O)O)cc3)cc3nc(C(F)(F)F)ccc32)cc1` [Example 16, 4-[1-(4-(1-methylethyl)phenylsulfonyl)-5-trifluoromethyl-1H-pyrrolo[3,2-b]pyridin-2-ylmethyl]benzoic acid], the Emax worked out at 53% in experiment [1] and 68% in experiment [2] (setting [3]).

For the molecule `CN1CCOc2ccc(S(=O)(=O)n3c(Cc4ccc(C(=O)O)cc4)cc4cc(C(F)(F)F)cnc43)cc21` [Example 18, 4-[[1-[(3,4-dihydro-4-methyl-2H-1,4-benzoxazin-6-yl)sulfonyl]-5-(trifluoromethyl)-1H-pyrrolo[2,3-b]pyridin-2-yl]methyl]benzoic acid], the results for the Emax in experiment [1] and in experiment [2] (setting [3]) were 69% and 62%, respectively.

As for `CC(C)c1ccc(S(=O)(=O)n2c(Cc3ccc(C(=O)O)cc3)cc3cc(Cl)ncc32)cc1` [Example 20, 4-[[5-chloro-1-[[4-(1-methylethyl)phenyl]sulfonyl]-1H-pyrrolo[2,3-c]pyridin-2-yl]methyl]benzoic acid], the Emax in experiment [1] came to 27%; in experiment [2] (setting [3]), 42%.

Consider `CC(C)(C)c1cccc(S(=O)(=O)n2c(Cc3ccc(C(=O)O)cc3)cc3nc(C(F)(F)F)ccc32)c1` [Example 22, 4-[[1-[[3-(1,1-dimethylethyl)phenyl]sulfonyl]-5-(trifluoromethyl)-1H-pyrrolo[3,2-b]pyridin-2-yl]methyl]benzoic acid], for which the Emax in experiment [1] was determined as 68%; in experiment [2] (setting [3]) it was 92%.

For `CC(C)c1cccc(S(=O)(=O)n2c(Cc3ccc(C(=O)O)cc3)cc3cc(C(F)(F)F)cnc32)c1` [Example 25, 4-[[1-[[3-(1-methylethyl)phenyl]sulfonyl]-5-(trifluoromethyl)-1H-pyrrolo[2,3-b]pyridin-2-yl]methyl]benzoic acid], the Emax in experiment [1] came out at 52%; in experiment [2] (setting [3]), 57%.

As to `CC(C)(C)c1cccc(S(=O)(=O)n2c(Cc3ccc(C(=O)O)cc3)cc3cc(C(F)(F)F)cnc32)c1` [Example 28, 4-[[1-[[3-(1,1-dimethylethyl)phenyl]sulfonyl]-5-(trifluoromethyl)-1H-pyrrolo[2,3-b]pyridin-2-yl]methyl]benzoic acid], the Emax in experiment [1] amounted to 51%; in experiment [2] (setting [3]), 66%.

Turning to `CC(C)c1ccc(S(=O)(=O)n2c(Cc3ccc(C(=O)O)cc3)cc3cc(Cl)cnc32)cc1` [Example 31, 4-[[5-chloro-1-[[4-(1-methylethyl)phenyl]sulfonyl]-1H-pyrrolo[2,3-b]pyridin-2-yl]methyl]benzoic acid], the Emax came out at 48% in experiment [1] and 63% in experiment [2] (COS-7, read-out: hNurr1_RXRαFL Eff (%), percentage efficacy relative to the reference XCT0135908 at 2×10^−5 M (=100%)).

For `CC(C)(C)c1cccc(S(=O)(=O)n2c(C(O)c3ccc(C(=O)O)s3)cc3nc(C(F)(F)F)ccc32)c1` (stereo not shown) [Example 32, 5-{hydroxy[1-(3-(1,1-dimethylethyl)phenylsulfonyl)-5-trifluoromethyl-1H-pyrrolo[3,2-b]pyridin-2-yl]methyl}thiophene-2-carboxylic acid], in experiment [2] (setting [3]), the Emax is 84%.

Turning to `CCN(CC)C(=O)c1ccc(C(F)c2cc3nc(C(F)(F)F)ccc3n2S(=O)(=O)c2cccc(C(C)(C)C)c2)s1` (stereo not shown) [Example 33, 5-[[1-[[3-(1,1-dimethylethyl)phenyl]sulfonyl]-5-(trifluoromethyl)-1H-pyrrolo[3,2-b]pyridin-2-yl]fluoromethyl]-N,N-diethyl-2-thiophenecarboxamide], the Emax in experiment [2] (setting [3]) stood at 92%.

As to `CC(C)(C)c1cccc(S(=O)(=O)n2c(C(=O)c3ccc(C(=O)O)s3)cc3nc(C(F)(F)F)ccc32)c1` [Example 34, 5-{1-(3-(1,1-dimethylethyl)phenylsulfonyl)-5-trifluoromethyl-1H-pyrrolo[3,2-b]pyridine-2-carbonyl}thiophene-2-carboxylic acid], the Emax in experiment [2] (setting [3]) amounted to 31%.

On to `Cc1c(Cc2ccc(C(=O)O)cc2)n(S(=O)(=O)c2cccc(C(C)(C)C)c2)c2ccc(C(F)(F)F)nc12` [Example 37, 4-[[1-[[3-(1,1-dimethylethyl)phenyl]sulfonyl]-3-methyl-5-(trifluoro-methyl)-1H-pyrrolo[3,2-b]pyridin-2-yl]methyl]benzoic acid], for which the Emax in experiment [2] (setting [3]) turned out to be 67%.

As to `CC(C)c1ccc(S(=O)(=O)n2c(Cc3ccc(C(=O)O)s3)cc3cc(Cl)cnc32)cc1` [Example 38, 5-[[1-[[4-(1,1-methylethyl)phenyl]sulfonyl]-5-chloro-1H-pyrrolo[2,3-b]pyridin-2-yl]methyl]thiophene-2-carboxylic acid], the Emax in experiment [2] (setting [3]) is 80%.

On to `CC(C)(C)c1cccc(S(=O)(=O)n2c(Cc3ccc(C(=O)NS(C)(=O)=O)cc3)cc3nc(C(F)(F)F)ccc32)c1` [Example 39, N-{4-[1-(3-tert-butylbenzenesulfonyl)-5-trifluoromethyl-1H-pyrrolo[3,2-b]pyridin-2-ylmethyl]benzoyl}methanesulfonamide], for which the Emax in experiment [2] (setting [3]) was 51%.
